Assay results published in article PMC3095715 (Chemical biology & drug design, 2011).

Target: human C3 (Homo sapiens, UniProt P01024)
Test: Surface plasmon resonance
Assay type: binding
Settings: SPR

Sequence of human C3 (P01024 23-1663): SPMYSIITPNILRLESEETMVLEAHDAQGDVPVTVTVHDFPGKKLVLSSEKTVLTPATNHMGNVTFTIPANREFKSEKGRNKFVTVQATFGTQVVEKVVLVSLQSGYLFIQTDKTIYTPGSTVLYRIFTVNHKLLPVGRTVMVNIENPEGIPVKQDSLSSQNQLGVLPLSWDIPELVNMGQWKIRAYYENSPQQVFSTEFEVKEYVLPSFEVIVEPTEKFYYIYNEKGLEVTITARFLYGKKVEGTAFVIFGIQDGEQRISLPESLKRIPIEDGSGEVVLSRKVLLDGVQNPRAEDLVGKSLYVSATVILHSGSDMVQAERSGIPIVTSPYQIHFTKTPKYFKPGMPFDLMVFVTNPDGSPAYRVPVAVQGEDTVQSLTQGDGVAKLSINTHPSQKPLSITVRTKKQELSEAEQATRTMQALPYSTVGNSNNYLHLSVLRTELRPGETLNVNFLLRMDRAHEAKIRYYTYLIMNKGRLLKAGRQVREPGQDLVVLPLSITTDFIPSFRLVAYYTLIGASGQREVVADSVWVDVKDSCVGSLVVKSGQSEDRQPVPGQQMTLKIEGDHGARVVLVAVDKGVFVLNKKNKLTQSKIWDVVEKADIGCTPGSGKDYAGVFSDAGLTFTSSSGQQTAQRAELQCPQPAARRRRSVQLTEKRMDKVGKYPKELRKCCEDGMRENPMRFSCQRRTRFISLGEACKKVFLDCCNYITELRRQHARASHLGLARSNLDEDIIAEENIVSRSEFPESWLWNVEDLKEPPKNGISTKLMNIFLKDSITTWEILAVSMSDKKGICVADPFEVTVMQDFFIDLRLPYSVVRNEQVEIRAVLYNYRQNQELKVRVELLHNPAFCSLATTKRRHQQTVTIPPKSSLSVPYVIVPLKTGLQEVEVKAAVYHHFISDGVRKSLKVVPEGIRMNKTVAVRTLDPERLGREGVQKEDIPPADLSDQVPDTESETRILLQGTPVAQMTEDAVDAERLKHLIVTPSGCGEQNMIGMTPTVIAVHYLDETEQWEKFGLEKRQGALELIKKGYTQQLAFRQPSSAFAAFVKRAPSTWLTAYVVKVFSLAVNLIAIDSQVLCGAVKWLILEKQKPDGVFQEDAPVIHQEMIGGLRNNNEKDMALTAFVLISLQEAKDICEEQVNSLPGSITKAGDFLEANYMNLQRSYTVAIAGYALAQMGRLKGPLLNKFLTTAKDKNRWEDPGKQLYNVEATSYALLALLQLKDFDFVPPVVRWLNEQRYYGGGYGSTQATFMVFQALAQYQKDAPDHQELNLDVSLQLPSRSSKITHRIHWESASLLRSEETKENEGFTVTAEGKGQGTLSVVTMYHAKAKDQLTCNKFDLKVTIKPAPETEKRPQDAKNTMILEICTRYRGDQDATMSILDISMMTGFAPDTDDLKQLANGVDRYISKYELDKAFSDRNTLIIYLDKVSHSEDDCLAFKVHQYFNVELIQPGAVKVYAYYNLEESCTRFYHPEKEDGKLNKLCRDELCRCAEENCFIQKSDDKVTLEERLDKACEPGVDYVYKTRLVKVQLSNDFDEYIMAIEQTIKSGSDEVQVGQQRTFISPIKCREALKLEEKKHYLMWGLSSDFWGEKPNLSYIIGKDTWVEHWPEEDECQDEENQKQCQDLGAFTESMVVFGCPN

Binding to C3 (result in words): not to bind to C3
Substance: Ac-W[CVWQDWGAWRC]W-(PEG)8-K-(biotin)-NH2 (disulfide) [Peptide X]
